# Where a name gives a salt, the structure may show the parent alone.
row,SMILES,melting point
1,"C=CCOc1c(F)cc(C2=CC3(CCN(CC(=O)O)CC3)Oc3ccccc32)cc1F (as salt: hydrochloride) [Example 55, 4-(4-Allyloxy-3,5-difluorophenyl)-1′-carboxymethylspiro[2H-1-benzopyran-2,4′-piperidine]hydrochloride]",221 to 225 °C
2,"O=C(O)CN1CCC2(C=C(c3cc(F)c(OCC(F)(F)F)c(F)c3)c3ccccc3O2)CC1 (as salt: hydrochloride) [Example 59, 1′-Carboxymethyl-4-(3,5-difluoro-4-trifluoroethoxyphenyl)spiro[2H-1-benzopyran-2,4′-piperidine]hydrochloride]",244 to 251 °C
3,"CN(C)c1ccc(C2=CC3(CCN(CC(=O)O)CC3)Oc3ccccc32)cc1 (as salt: hydrochloride) [Example 24, 1′-Carboxymethyl-4-[4-(N,N-dimethylamino)phenyl]spiro[2H-1-benzopyran-2,4′-piperidine]hydrochloride]",238 to 250 °C
4,"CN(C)c1c(F)cc(C2=CC3(CCN(CC(=O)O)CC3)Oc3ccccc32)cc1F (as salt: hydrochloride) [Example 38, 1′-Carboxymethyl-4-(3,5-difluoro-4-dimethylaminophenyl)spiro[2H-1-benzopyran-2,4′-piperidine]hydrochloride]",231 to 242 °C
5,"O=C(O)CN1CCC2(C=C(c3ccc(Cl)cc3)c3ccccc3O2)CC1 (as salt: hydrochloride) [Example 2, 1′-Carboxymethyl-4-(4-chlorophenyl)spiro[2H-1-benzopyran-2,4′-piperidine]hydrochloride]",259 to 265 °C
6,O=C([O-])CN1CCC2(CC1)CC(c1ccc(F)cc1)c1ccccc1O2.[Li+] (stereo not shown),274 to 278 °C (dec.)
7,"CN(C)c1ccc(C2=CC3(CCN(CC(=O)O)CC3)Oc3ccccc32)cc1F (as salt: hydrochloride) [Example 37, 1′-Carboxymethyl-4-(4-dimethylamino-3-fluorophenyl)spiro[2H-1-benzopyran-2,4′-piperidine]hydrochloride]",231 to 239 °C

# Reference: patent publication US6645973B1, “Spiro(2h-1-benzopyran-2,4-piperidine)derivatives as glycine transport inhibitors” (Akzo Nobel, priority 1999, dated 2003)
